Residues, ends and D or L forms follow the SMILES beside them. *: point of attachment. Cbz = O=C(OCc1ccccc1)*; Boc = CC(C)(C)OC(=O)*
Row | SMILES | melting point [°C]
1 | Fc1ccc([C@@]2(Cn3nc[nH]c3=S)O[C@@H]2c2ccccc2C(F)(F)F)cc1F (relative stereo) | 143 to 146
2 | O=C(c1ccc(F)cc1)n1c2c(c3ccccc31)CC(C(=O)O)(C(=O)O)CC2 | 190 to 195
3 | CCc1oc2ccccc2c1C(=O)NCc1ccc2c(Br)c(O)ccc2c1 | 188 to 190
4 | CCOC(=O)CNCC1CC2c3cccc4[nH]cc(c34)CC2N(C)C1 (stereo not drawn) | 174 to 176
5 | CCN(CC)CCNC(=O)c1cc(Cl)c(N)cc1OCCO | 144 to 146
6 | FC(F)(F)c1cc(-c2ccc(Cl)cc2)nc(-n2cnc(I)c2)n1 | 258
7 | CNC(=O)c1cc(-c2c[nH]nc2-c2ccc(F)cc2)ccn1 | 88 to 89
8 | COc1ccc(CCOC(c2ccccc2)(c2ccccc2)C(O)C(=O)O)cc1OC (stereo not drawn) | 133 to 135
9 | O=C1N[C@H](Cc2ccc(C(F)(F)F)cc2)[C@H](c2ccccc2)O1 (racemic) | 158 to 159
10 | COc1cc(-c2ccccc2)c([N+](=O)[O-])cc1OC | 113 to 115
11 | CC(C)(C)OC(=O)NC(CCCCNC(=O)OCc1ccccc1)C(=O)N1CCCC1C(=O)NC(CCCNC(=N)N)C(=O)O (stereo not drawn) (Boc-Lys(Cbz)-Pro-Arg-OH; configuration not given here) | 90
12 | Cc1c(C)c(N2CCN(C(=O)OC(C)(C)C)CC2)c(C)c2c1OC(C)(C)C2N1CCCCC1 (stereo not drawn) | 167 to 168
13 | CCCCCCCCCCc1ccc(-c2ccc(OC)c(F)c2)cc1 | 102
14 | COc1cc(N)c(Cl)cc1Br | 40 to 41
15 | O=C(Cc1ccccc1)c1ccc(C(=O)Cc2ccccc2)cc1 | 171 to 173
16 | COC1=C(Cl)C(Cl)C(C(=O)C2(C3=CCCCC3)C=CC(OC)=C(Cl)C2Cl)(C2=CCCCC2)C=C1 (stereo not drawn) | 126 to 129
17 | CC(C)CNC(=O)C=CCBr | 94 to 95
18 | CCCn1nc(C(C)C)c(C(=O)O)c1Cc1ccc(-c2ccccc2-c2nnn(C(c3ccccc3)(c3ccccc3)c3ccccc3)n2)cc1 | 136 to 139
19 | CC(C)(C)C(=O)OCC1OC(OC(=O)C(C)(C)C)C(OC(=O)C(C)(C)C)C(OC(=O)C(C)(C)C)C1OC(=O)C(C)(C)C (stereo not drawn) | 153 to 156
20 | CCCC(NS(C)(=O)=O)P(=O)(OCCCl)OCCCl (stereo not drawn) | 69 to 72
21 | Nc1cc2[nH]c(=O)c(=O)[nH]c2cc1[N+](=O)[O-] | > 330
22 | CS(=O)(=O)c1ccc(-c2cnn(CC(F)(F)F)c(=O)c2Sc2nc[nH]n2)cc1 | 197 to 200
23 | CCOC(Nc1ccc(C(=O)O)cc1)C(=O)c1ccc(-c2ccccc2)cc1 (stereo not drawn) | 179

Row | SMILES | melting point [°C]
24 | C=CCCCc1ccc(C=CC(=O)c2ccc(OCC=C(C)C)cc2)c(OCC(=O)O)c1 | 116 to 118
25 | COc1ccc(S(=O)(=O)N2C(=O)C(OC(=O)Oc3ccccc3)(c3ccccc3OC(F)(F)F)c3cc(Cl)ccc32)c(OC)c1 (stereo not drawn) | 203 to 204
26 | CC(=O)N1CCN=C1CC(c1ccccc1)c1ccccc1 | 104 to 106
27 | CCCCCCCCCCCCCCOc1ccc(C(=O)N(Cc2ccccn2)C(C)=O)cc1 | 68 to 70
28 | CC(C)(C)c1nc2cc(N3CCCC3)c([N+](=O)[O-])cc2s1 | 115 to 117
29 | CC(=O)Nc1ccccc1CS(=O)c1nccn1Cc1ccccn1 (stereo not drawn) | 146 to 148
30 | Cc1ccc(S(N)(=O)=O)cc1C(C)O (stereo not drawn) | 155 to 158
31 | OC(=S)c1ccccc1-c1ccccc1 | 178 to 180
32 | CNC(=O)NC(Cc1c[nH]c2ccccc12)C(=O)NCc1cc(C(F)(F)F)cc(C(F)(F)F)c1 (stereo not drawn) | 213 to 215
33 | Cc1c(C2=NCCS2)[nH]c2c(NS(=O)(=O)c3cccs3)cccc12 | 163 to 164
34 | CCOC(=O)C1N=C(c2ccccc2)c2cc(Cl)ccc2N(C)C1=O (stereo not drawn) | 180
35 | Cc1ccccc1-c1cc(O)ccc1O | 65 to 68
36 | CCCCNC(=O)Oc1ccc(Oc2ccc(C(C)(C)C)cc2)cc1 | 78 to 80
37 | N#Cc1ccc(CNC(c2ccccc2)c2ccccc2)cc1 | 75
38 | Cc1cnc(CS(=O)c2cc3ccccc3[nH]2)cc1N1CCCCC1 (stereo not drawn) | 178
39 | CCOC1(C#N)NC(=O)C(=O)NC1(C#N)OCC (stereo not drawn) | 205 to 208
40 | CNC(=O)C(Cc1ccc(Br)cc1)NC(=O)Nc1n[nH]c(=S)s1 (stereo not drawn) | 238 to 241
41 | CCCc1nc(C(=O)C(C)C)c(C#N)[nH]1 | 90.5 to 91
42 | COc1ccc2c(c1)c(OC(C)C)c(C(=O)O)n2-c1ccccc1 | 110
43 | O=S1(=O)N=C(NCC2CC2)Nc2ccc(C(F)(F)F)cc21 | 266 to 268
44 | N#Cc1cc(Cl)cc(Oc2ccc(CC(=O)Nc3ccc(CS(N)(=O)=O)cc3)cc2Br)c1 | 133 to 135
45 | CC1(C)Oc2ccc([N+](=O)[O-])cc2C(n2ccccc2=O)=C1CBr | 221
46 | CCOC(=O)c1cnc(Nc2cccc([N+](=O)[O-])c2)[nH]c1=O | 226 to 228

Second part, the compound after the results:

Row | melting point [°C] | SMILES
47 | 230 to 232 | CCc1nc2c(N)nc3cc(OCCN4CCOCC4)ccc3c2n1CC1CCOCC1
48 | 93 to 96 | CO[C@]1(c2cccc(Sc3ccc4c(ccc(=O)n4C)c3)c2)CCO[C@@H](C)C1
49 | 112 to 115 | COc1cccc(C(=CC2CCN(CCCCCCCCc3cccnc3)CC2)c2cccc(OC)c2)c1
50 | 113 to 114 | COC1(C)CN(c2ccc(N3C[C@H](CNC(C)=O)OC3=O)cc2F)C1
51 | 249 to 250 | CCCn1c(=O)c2[nH]c(/C=C/c3cc(OC)cc(OC)c3)nc2n(CCC)c1=O
52 | 165 | CCCc1c[nH]cc2c(=O)n(-c3ccc(OC)cc3)nc1-2
53 | 120 to 121 | CCOC(=O)c1cn(OC)c2ccccc2c1=O
54 | 122 to 123 | CCCCOC(=O)NS(=O)(=O)CCc1c(C)nn(C)c1-n1ccc2cc(C(F)(F)F)cnc21
55 | 55 | CCCCC(C(=O)OCC)=C(Nc1cccc(SC)c1)C(=O)OCC
56 | 194 to 196 | COc1ccc(C=C2CS(=O)(=O)CC(=Cc3ccc(OC)cc3)C2(O)NC2=NCCS2)cc1 (stereo not drawn)
57 | 144 to 145 | COC(=O)C=Cc1cc(C)n(CCNC(C)=O)c1C
58 | 176 to 178 | COC(=O)c1ccc(Cn2c(=O)c(C)c3sc(C(=O)NCc4ccc(F)cc4)cn3c2=O)cc1Cl
59 | 157 to 159 | CC(C)c1nc(CCOC(=O)OCCc2nc(C(C)C)c(Sc3cc(Cl)cc(Cl)c3)n2C)n(C)c1Sc1cc(Cl)cc(Cl)c1
60 | 316 to 320 | COc1ccc2c(c1)c(=O)n1nc(C#N)cc1n2C
61 | 248 to 249 | COc1ccc(-c2nc(-c3ccc(OS(=O)(=O)O)cc3)cs2)cc1OC
62 | 166 to 168 | CCOC(Cc1ccc(OCc2nc(C3CC3)oc2C)c2ccccc12)C(=O)O (stereo not drawn)
63 | 202 to 204 | CCOC=Cc1c(OC)c(=O)[nH]c2cc(Cl)ccc2c1=O
64 | 148 to 150 | CCn1c(=O)c(C)cc2cnc(S(C)=O)nc21 (stereo not drawn)
65 | 177 | COc1cc(O)c(C(=O)C=Cc2ccc(O)c(OC)c2)c(OC)c1
66 | 208 to 209 | Cc1oc(-c2ccccc2)nc1COc1ccc2cc(CCCC3SC(=O)NC3=O)ccc2c1 (stereo not drawn)
67 | 140 | Cn1nc(C(F)(F)F)cc1Oc1cc(C#N)cc(Oc2cc(C(F)(F)F)nn2C)n1
68 | 167 to 171 | COc1ccc2c(c1)CCc1ccc(-c3ccccc3)cc1C21N=C(N)N(C)C1=O (stereo not drawn)

Source: a melting point compilation (Tetko et al.; mined from patent text by program, amines drawn as free bases though some values may be those of a salt)
